Results from DBAASP.
Converted amounts (≈) assume the structure as drawn. Values belong to the compound of their own block, whether it stands above or below them.

What was measured:
Assay in all cases: ≥ marks a high value that may be exact or a test limit, other limits are often not marked, values filed in µg/mL are converted to µM
[1] = system: Pseudomonas aeruginosa ATCC 27853
[2] = system: Escherichia coli ATCC 25922
[3] = system: Staphylococcus aureus ATCC 29313
[4] = system: Xanthomonas axonopodis pv. glycines ISBF 327
[5] = system: Staphylococcus aureus ATCC BAA-44
[6] = system: Enterococcus faecalis ATCC 29212
Escherichia coli ML-35p = system: Escherichia coli ML-35p
[7] = system: Staphylococcus aureus ST1065
[8] = system: Streptococcus pyogenes ATCC 19615
[9] = system: Candida parapsilosis ATCC 22019
[10] = system: Klebsiella pneumoniae ATCC 13883
[11] = system: Staphylococcus aureus ATCC 25923
[12] = system: Acinetobacter baumannii ATCC 19606
Saccharomyces cerevisiae = system: Saccharomyces cerevisiae
[13] = system: Staphylococcus aureus ATCC 43300
Staphylococcus xylosus = system: Staphylococcus xylosus
[14] = system: Escherichia coli DH5alpha
[15] = system: Burkholderia thailandensis
[16] = system: Bacillus subtilis ATCC 9372
[17] = system: Bacillus anthracis Sterne 34F2
Neurospora crassa = system: Neurospora crassa
Micrococcus luteus = system: Micrococcus luteus
[18] = system: Klebsiella aerogenes ATCC 13048
[19] = system: Bacillus cereus ATCC 11778
[20] = system: Salmonella enterica subsp. enterica serovar Typhimurium ATCC 14028
[21] = system: Staphylococcus aureus ATCC 29213
[22] = system: Pseudomonas aeruginosa KCTC 1637
[23] = system: Salmonella typhimurium KCTC 1926
Enterococcus faecium = system: Enterococcus faecium
[24] = system: Bacillus subtilis KCTC 3068
[25] = system: Staphylococcus aureus KCTC 1621
Staphylococcus aureus = system: Staphylococcus aureus
[26] = system: Escherichia coli KCTC 1682
[27] = system: Staphylococcus epidermidis KCTC 1917
Escherichia coli BL21AI = system: Escherichia coli BL21AI
[28] = system: Micrococcus luteus ATCC 10240

- MIC [1]: 125 µM (≈ 244 µg/mL)
- MIC [2]: 62 µM (≈ 121 µg/mL)
- MIC [4]: ≥ 33 µM
Compound: CC[C@H](C)[C@H](NC(=O)[C@@H](NC(=O)[C@H](CCCCN)NC(=O)CNC(=O)[C@H](C)NC(=O)[C@H](CC(C)C)NC(=O)[C@H](CC(N)=O)NC(=O)[C@H](CCCCN)NC(=O)[C@H](CC(C)C)NC(=O)[C@@H](NC(=O)[C@H](CC(=O)O)NC(=O)[C@H](Cc1ccccc1)NC(=O)[C@H](Cc1ccccc1)NC(=O)[C@@H](N)Cc1ccccc1)[C@@H](C)O)C(C)C)C(=O)NCC(=O)N[C@@H](C)C(=O)N[C@@H](CC(C)C)C(=O)N[C@H](C(N)=O)[C@@H](C)O [FFFDTLKNLAGKVIGALT]
- MIC [3]: ≥ 62 µM

- MIC [18]: ≥ 71.2 µM
- MIC [19]: ≥ 71.2 µM
- MIC [20]: > 71.2 µM
- MIC [2]: > 71.2 µM
- MIC [21]: > 71.2 µM
Compound: CC[C@H](C)[C@H](N)C(=O)N[C@@H](CC(C)C)C(=O)NCC(=O)N[C@@H](C)C(=O)N[C@H](C(=O)N[C@@H](Cc1c[nH]c2ccccc12)C(=O)N[C@@H](CC(N)=O)C(=O)NCC(=O)N[C@H](C(=O)N[C@@H](CCCCN)C(=O)N[C@@H](CO)C(=O)N[C@@H](CC(C)C)C(=O)N[C@@H](Cc1ccccc1)C(N)=O)C(C)C)C(C)C [ILGAVWNGVKSLF]

- MIC [22]: 5.07 µM (≈ 8 µg/mL)
- MIC [23]: 5.07 µM (≈ 8 µg/mL)
- MIC (Enterococcus faecium): 5.07 µM (≈ 8 µg/mL)
- MIC [24]: 1.27 µM (≈ 2 µg/mL)
- MIC [25]: 2.54 µM (≈ 4 µg/mL)
- MIC (Staphylococcus aureus): 3.58 µM (≈ 5.66 µg/mL)
- MIC [26]: 5.07 µM (≈ 8 µg/mL)
- MIC [27]: 0.634 µM (≈ 1 µg/mL)
Compound: NCCCC[C@H](NC(=O)[C@H](CCCCN)NC(=O)[C@H](Cc1ccccc1)NC(=O)[C@@H]1CCCN1C(=O)[C@H](Cc1c[nH]c2ccccc12)NC(=O)[C@H](Cc1c[nH]c2ccccc12)NC(=O)[C@H](Cc1c[nH]c2ccccc12)NC(=O)[C@@H]1CCCN1C(=O)[C@H](Cc1ccccc1)NC(=O)[C@H](CCCCN)NC(=O)[C@@H](N)CCCCN)C(=O)O [KKFPWWWPFKK]

- MIC (Staphylococcus xylosus): ≥ 64 µM
- MIC [14]: ≥ 64 µM
Compound: NCCCC[C@H](NC(=O)[C@H](CCCN=C(N)N)NC(=O)[C@H](CCCCN)NC(=O)[C@H](CO)NC(=O)CNC(=O)[C@H](CO)NC(=O)CNC(=O)[C@H](CO)NC(=O)[C@H](CCCCN)NC(=O)[C@H](CCCN=C(N)N)NC(=O)[C@@H](N)CCCCN)C(=O)O [KRKSGSGSKRK]

- MIC (Escherichia coli BL21AI): 13.9 µM (≈ 32 µg/mL)
- MIC [28]: 6.94 µM (≈ 16 µg/mL)
Compound: CC[C@H](C)[C@H](NC(=O)[C@H](C)NC(=O)[C@H](CCCN=C(N)N)NC(=O)[C@@H]1CCCN1C(=O)[C@@H]1CCCN1C(=O)[C@H](CCCN=C(N)N)NC(=O)[C@@H]1CCCN1C(=O)[C@H](CCCN=C(N)N)NC(=O)[C@@H]1CCCN1C(=O)[C@H](CC(C)C)NC(=O)[C@H](Cc1ccc(O)cc1)NC(=O)[C@@H]1CCCN1C(=O)[C@@H]1CCCN1C(=O)[C@H](CCCCN)NC(=O)[C@H](CC(=O)O)NC(=O)[C@@H](N)C(C)C)C(=O)N[C@@H](Cc1ccc(O)cc1)C(=O)N[C@@H](CC(N)=O)C(=O)N[C@@H](CCCN=C(N)N)C(N)=O [VDKPPYLPRPRPPRAIYNR]

Further lines, the compound ahead of its results:

Compound: CC[C@H](C)[C@H](NC(=O)[C@H](Cc1cnc[nH]1)NC(=O)[C@@H]1CCCN1C(=O)[C@@H](NC(=O)[C@H](CC(C)C)NC(=O)[C@H](CO)NC(=O)[C@H](CC(C)C)NC(=O)[C@@H](N)Cc1ccccc1)[C@@H](C)CC)C(=O)N[C@H](C(=O)N[C@@H](CO)C(=O)NCC(=O)N[C@H](C(=O)N[C@@H](C)C(=O)N[C@@H](CO)C(=O)N[C@@H](CC(C)C)C(=O)N[C@@H](C)C(=O)N[C@@H](CCCCN)C(=O)N[C@@H](Cc1cnc[nH]1)C(=O)N[C@@H](Cc1ccccc1)C(N)=O)C(C)C)C(C)C [FLSLIPHIVSGVASLAKHF]
- MIC [5]: 6.25 µM (≈ 12.7 µg/mL)
- MIC [6]: 25 µM (≈ 50.9 µg/mL)
- MIC (Escherichia coli ML-35p): 30 µM (≈ 61.1 µg/mL)
- MIC [7]: 6.25 µM (≈ 12.7 µg/mL)
- MIC [8]: 1.56 µM (≈ 3.18 µg/mL)
- MIC [9]: ≥ 50 µM
- MIC [10]: 25 µM (≈ 50.9 µg/mL)
- MIC [11]: 6.25 µM (≈ 12.7 µg/mL)
- MIC [12]: 6.25 µM (≈ 12.7 µg/mL)
- MIC (Saccharomyces cerevisiae): 6.25 µM (≈ 12.7 µg/mL)
- MIC [1]: 200 µM (≈ 407 µg/mL)
- MIC [2]: 25 µM (≈ 50.9 µg/mL)
- MIC [13]: 6.25 µM (≈ 12.7 µg/mL)

Compound: CC[C@H](C)[C@H](NC(=O)CNC(=O)[C@H](CO)NC(=O)CN)C(=O)N[C@@H](CC(C)C)C(=O)N[C@H](C(=O)N[C@@H](CC(C)C)C(=O)N[C@H](C(=O)N[C@@H](CCCCN)C(=O)N[C@@H](CCCN=C(N)N)C(=O)N[C@@H](CCCCN)C(=O)O)[C@@H](C)CC)[C@@H](C)CC [GSGILILIKRK]
- MIC (Staphylococcus xylosus): ≥ 64 µM
- MIC [14]: ≥ 64 µM

Compound: CC[C@H](C)[C@H](NC(=O)[C@@H]1CCCN1C(=O)CNC(=O)[C@@H]1CCCN1C(=O)[C@H](CCCN=C(N)N)NC(=O)[C@@H]1CCCN1C(=O)[C@H](CCC(N)=O)NC(=O)[C@H](CC(N)=O)NC(=O)[C@@H]1CCCN1C(=O)[C@H](CC(N)=O)NC(=O)[C@H](Cc1ccccc1)NC(=O)[C@@H]1CCCN1C(=O)[C@H](CO)NC(=O)[C@@H]1CCCN1C(=O)[C@H](CCCN=C(N)N)NC(=O)[C@@H](NC(=O)[C@H](CC(=O)O)NC(=O)[C@H](Cc1ccccc1)NC(=O)[C@@H](NC(=O)[C@@H]1CCCN1C(=O)CNC(=O)[C@H](CCC(N)=O)NC(=O)[C@H](Cc1cnc[nH]1)NC(=O)[C@H](CCCN=C(N)N)NC(=O)[C@@H](N)Cc1cnc[nH]1)[C@@H](C)CC)[C@@H](C)O)C(=O)N[C@@H](Cc1ccc(O)cc1)C(=O)O [HRHQGPIFDTRPSPFNPNQPRPGPIY]
- MIC [15]: ≥ 50 µM
- MIC [16]: ≥ 100 µM
- MIC [17]: ≥ 100 µM
- MIC (Neurospora crassa): 0.707 µM (≈ 2.14 µg/mL)
- MIC (Micrococcus luteus): 0.707 µM (≈ 2.14 µg/mL)

Compound: CC[C@H](C)[C@H](N)C(=O)N[C@@H](CC(C)C)C(=O)NCC(=O)N[C@@H](CCCCN)C(=O)N[C@H](C(=O)N[C@@H](Cc1c[nH]c2ccccc12)C(=O)N[C@@H](CCC(=O)O)C(=O)NCC(=O)N[C@H](C(=O)N[C@@H](CCC(=O)O)C(=O)N[C@@H](CO)C(=O)N[C@@H](CC(C)C)C(=O)N[C@@H](Cc1ccccc1)C(N)=O)[C@@H](C)CC)[C@@H](C)CC [ILGKIWEGIESLF]
- MIC [18]: ≥ 66.5 µM
- MIC [19]: ≥ 66.5 µM
- MIC [20]: > 66.5 µM
- MIC [2]: > 66.5 µM
- MIC [21]: > 66.5 µM
